Data as given in paper PMC6522510 (Nature Communications, 2019).
Read-outs that look alike come from different tables or passages of the source.

Legend:
MOLM-13 [1] = experiment: Secondary dose-response HTS, Cell Titer Glo; format: cell-based, human
MV4-11 [2] = experiment: Secondary dose-response HTS, Cell Titer Glo; format: cell-based, human; settings: for EC50: Homo sapiens
M07e [3] = experiment: cells; set-up: species or system AML cell lines (8); Secondary HTS, 10-point dose-response in triplicate, Cell Titer Glo viability, four-parameter fit EC50; settings: M-07e, 72 h, read-out: M07e
CMK [4] = experiment: cells; set-up: species or system AML cell lines (8); Secondary HTS, 10-point dose-response in triplicate, Cell Titer Glo viability, four-parameter fit EC50; settings: Homo sapiens, CMK, 72 h, read-out: CMK
U937 [5] = experiment: Secondary dose-response HTS, Cell Titer Glo; format: cell-based, human; settings: secondary high-throughput screen, U937; for EC50: read-out: average effective concentration, U937
CMS = experiment: Secondary dose-response HTS, Cell Titer Glo; format: cell-based, human; settings: Homo sapiens, HTS, read-out: average effective concentration, CMS
ML2 = experiment: Secondary dose-response HTS, Cell Titer Glo; format: cell-based, human
CHRF288-11 [6] = experiment: cells; set-up: species or system AML cell lines (8); Secondary HTS, 10-point dose-response in triplicate, Cell Titer Glo viability, four-parameter fit EC50; settings: 72 h, read-out: CHRF288-11
CHRF288-11 [7] = experiment: Secondary dose-response HTS, Cell Titer Glo; format: cell-based, human; settings: for EC50: Homo sapiens, HTS, read-out: average effective concentration, CHRF288-11
U937 [8] = experiment: cells; set-up: species or system AML cell lines (8); Secondary HTS, 10-point dose-response in triplicate, Cell Titer Glo viability, four-parameter fit EC50; settings: Homo sapiens, U-937, 72 h, read-out: U937
MOLM-13 [9] = experiment: cells; set-up: species or system AML cell lines (8); Secondary HTS, 10-point dose-response in triplicate, Cell Titer Glo viability, four-parameter fit EC50; settings: Homo sapiens, MOLM-13, 72 h, read-out: MOLM-13
CMK [10] = experiment: Secondary dose-response HTS, Cell Titer Glo; format: cell-based, human; settings: CMK; for EC50: read-out: average effective concentration, CMK
M07e [11] = experiment: Secondary dose-response HTS, Cell Titer Glo; format: cell-based, human; settings: secondary high-throughput screen; for EC50: read-out: average effective concentration, M07e
MV4-11 [12] = experiment: cells; set-up: species or system AML cell lines (8); Secondary HTS, 10-point dose-response in triplicate, Cell Titer Glo viability, four-parameter fit EC50; settings: Homo sapiens, MV4-11, 72 h, read-out: MV4-11
[13] = Homo sapiens, secondary high-throughput screen, MOLM-13, read-out: average effective concentration, MOLM-13
[14] = secondary high-throughput screen, MV4-11, read-out: average effective concentration, MV4-11
[15] = secondary high-throughput screen, CMS
[16] = Homo sapiens, secondary high-throughput screen, ML-2, read-out: average effective concentration, ML-2
[17] = secondary high-throughput screen, CHRF288-11
[18] = secondary high-throughput screen, MV4-11
[19] = secondary high-throughput screen
[20] = secondary high-throughput screen, MOLM-13
[21] = Homo sapiens, secondary high-throughput screen
[22] = secondary high-throughput screen, ML-2

CN1CC[C@H](c2c(O)cc(O)c3c(=O)cc(-c4ccccc4Cl)oc23)[C@H](O)C1 [ALVOCIDIB]
EC50 (MOLM-13 [1]; [13]): 36 nM
EC50 (MV4-11 [2]; [14]): 50 nM
EC50 (M07e [3]): > 10000 nM
EC50 (CMK [4]): > 10000 nM
EC50 (U937 [5]; Homo sapiens, U-937): 29 nM
EC50 (CMS; [15]): 64 nM
EC50 (ML2; [16]): 47 nM
EC50 (CHRF288-11 [6]): > 10000 nM

CC(C)c1cc(C(=O)N2Cc3ccc(CN4CCN(C)CC4)cc3C2)c(O)cc1O [AT13387]
EC50 (MV4-11 [2]; [14]): 8 nM
EC50 (CHRF288-11 [7]; [17]): 39 nM
EC50 (M07e [3]): > 10000 nM
EC50 (CMS): 34 nM
EC50 (U937 [8]): > 10000 nM
EC50 (ML2; [16]): 23 nM
EC50 (MOLM-13 [9]): 9.4 nM
EC50 (CMK [10]; Homo sapiens): 11 nM

O=C(/C=C/c1cccc(C(=O)NO)c1)NO [CBHA]
EC50 (MOLM-13 [1]; secondary high-throughput screen, MOLM-13, read-out: average effective concentration, MOLM-13): 2400 nM
average effective concentration, MV4-11 (MV4-11 [2]; [18]): Inactive
EC50 (U937 [5]): 1300 nM
EC50 (ML2; secondary high-throughput screen, ML-2, read-out: average effective concentration, ML-2): 5200 nM
EC50 (M07e [11]; M07e): 2200 nM
average effective concentration, CMK (CMK [10]; [19]): Inactive

Cn1c(Nc2ccc(C(F)(F)F)cc2)nc2cc(Oc3ccnc(-c4ncc(C(F)(F)F)[nH]4)c3)ccc21 [CHIR-265]
EC50 (CHRF288-11 [7]; [17]): 6800 nM
EC50 (M07e [3]): > 10000 nM
EC50 (CMK [4]): > 10000 nM
EC50 (MV4-11 [12]): > 10000 nM
EC50 (CMS; [15]): 10000 nM
EC50 (U937 [8]): > 10000 nM
EC50 (ML2; [16]): > 10000 nM
EC50 (MOLM-13 [9]): > 10000 nM

Nc1ncn([C@@H]2O[C@H](CO)[C@@H](O)[C@H]2O)c(=O)n1 [Compound 5-AZACYTIDINE]
average effective concentration, MV4-11 (MV4-11 [2]; [18]): Inactive
average effective concentration, CHRF288-11 (CHRF288-11 [7]; [17]): Inactive
average effective concentration, M07e (M07e [11]; M07e): Inactive

CC(C)c1cccc(C(C)C)c1N1C(=O)c2ccc(O)cc2C1=O [Compound 5HPP-33]
average effective concentration, MOLM-13 (MOLM-13 [1]; [20]): Inactive
average effective concentration, MV4-11 (MV4-11 [2]; [18]): Inactive
average effective concentration, CHRF288-11 (CHRF288-11 [7]; [17]): Inactive
average effective concentration, M07e (M07e [11]; M07e): Inactive
average effective concentration, CMK (CMK [10]; [19]): Inactive

CN[C@@H]1C[C@H]2O[C@@](C)([C@@H]1OC)n1c3ccccc3c3c4c(c5c6ccccc6n2c5c31)C(=O)N[C@H]4O [Compound 7-HYDROXYSTAUROSPORINE]
average effective concentration, M07e (M07e [11]; […]): Inactive

COc1cccc2c1C(=O)c1c(O)c3c(c(O)c1C2=O)C[C@@](O)(C(C)=O)C[C@@H]3O[C@H]1C[C@H](N)[C@H](O)[C@H](C)O1 [DAUNORUBICIN]
EC50 (MOLM-13 [1]; [13]): 43 nM
EC50 (MV4-11 [2]; [14]): 23 nM
EC50 (CHRF288-11 [7]; [17]): 1 nM
EC50 (U937 [5]; Homo sapiens, U-937): 4.3 nM
EC50 (ML2; [16]): 1 nM
EC50 (M07e [11]; Homo sapiens, M-07e, […]): 9 nM
EC50 (CMK [10]; [21]): 35 nM

CC(C)(C#N)c1ccc(N2C(=O)OCc3cnc4ccc(-c5cnc6ccccc6c5)cc4c32)cc1 [ETP-46464]
average effective concentration, MOLM-13 (MOLM-13 [1]; [20]): Inactive
average effective concentration, MV4-11 (MV4-11 [2]; [18]): Inactive
average effective concentration, M07e (M07e [11]; […]): Inactive

CCOC(=O)C1=C(C)NC2=C(C(=O)CC(C)(C)C2)C1c1ccc(-c2ccccc2)cc1 (stereo not drawn) [ITD-1]
average effective concentration, MOLM-13 (MOLM-13 [1]; [20]): Inactive
average effective concentration, MV4-11 (MV4-11 [2]; [18]): Inactive
average effective concentration, CHRF288-11 (CHRF288-11 [7]; [17]): Inactive
average effective concentration, U937 (U937 [5]): Inactive
average effective concentration, ML-2 (ML2; [22]): Inactive
average effective concentration, M07e (M07e [11]; M07e): Inactive
average effective concentration, CMK (CMK [10]; [19]): Inactive

Cn1cc(C(=O)Cc2ccccc2)cc1/C=C/C(=O)NO [MC 1293]
average effective concentration, MV4-11 (MV4-11 [2]; [18]): Inactive
average effective concentration, CHRF288-11 (CHRF288-11 [7]; [17]): Inactive
average effective concentration, U937 (U937 [5]): Inactive
EC50 (M07e [11]; M07e): 450 nM
EC50 (CMK [10]; [19]): 8700 nM

OC(c1cc(C(F)(F)F)nc2c(C(F)(F)F)cccc12)C1CCCCN1 (stereo not drawn) [MEFLOQUINE]
EC50 (CHRF288-11 [7]; [17]): > 10000 nM
EC50 (M07e [3]): > 10000 nM
EC50 (CMK [4]): > 10000 nM
EC50 (MV4-11 [12]): > 10000 nM
EC50 (U937 [5]; Homo sapiens, U-937): > 10000 nM
EC50 (CMS; [15]): > 10000 nM
EC50 (ML2; [16]): > 10000 nM
EC50 (MOLM-13 [9]): > 10000 nM

CCNC(=O)c1cc2c(-c3cc(OCCN4CCCC4)c(Cl)cc3Cl)nc(N)nc2s1 [NVP-BEP800]
average effective concentration, M07e (M07e [11]; […]): Inactive

COc1ccc(Cn2ccc3ccc(C(=O)NO)cc32)cc1 [PCI 34051]
average effective concentration, MOLM-13 (MOLM-13 [1]; [20]): Inactive
average effective concentration, MV4-11 (MV4-11 [2]; [18]): Inactive
average effective concentration, CHRF288-11 (CHRF288-11 [7]; [17]): Inactive
average effective concentration, U937 (U937 [5]): Inactive
average effective concentration, ML-2 (ML2; [22]): Inactive
average effective concentration, M07e (M07e [11]; […]): Inactive
average effective concentration, CMK (CMK [10]; [19]): Inactive

COc1ccc(-c2cc3c(C)nc(N)nc3n([C@H]3CC[C@H](OCCO)CC3)c2=O)cn1 [PF-04691502]
average effective concentration, M07e (M07e [11]; M07e): Inactive

COc1cc(F)c(F)c(Nc2ccc(I)cc2F)c1NS(=O)(=O)C1(C[C@H](O)CO)CC1 [REFAMETINIB]
EC50 (MOLM-13 [1]; [13]): 1200 nM
EC50 (M07e [3]): > 10000 nM
EC50 (MV4-11 [12]): > 10000 nM
EC50 (CMS; [15]): > 10000 nM
EC50 (U937 [8]): > 10000 nM
EC50 (ML2; [16]): 1 nM
EC50 (CHRF288-11 [6]): > 10000 nM
EC50 (CMK [10]; [21]): 8600 nM

Cn1cc(-c2cnn3c(N)c(Br)c([C@@H]4CCCNC4)nc23)cn1 [SCH-900776]
EC50 (MOLM-13 [1]; Homo sapiens, MOLM-13, read-out: average effective concentration, MOLM-13): 51 nM
EC50 (MV4-11 [2]; MV4-11, read-out: average effective concentration, MV4-11): 83 nM
EC50 (CHRF288-11 [7]): 470 nM
EC50 (M07e [3]): > 10000 nM
EC50 (CMS): > 10000 nM
EC50 (U937 [8]): > 10000 nM
EC50 (ML2; Homo sapiens, ML-2, read-out: average effective concentration, ML-2): 53 nM
EC50 (CMK [10]; Homo sapiens): 130 nM

CC(=O)Nc1ccc(NC(=S)NC(=O)c2ccc(C(C)(C)C)cc2)cc1 [TENOVIN-1]
average effective concentration, MOLM-13 (MOLM-13 [1]; [20]): Inactive
average effective concentration, MV4-11 (MV4-11 [2]; [18]): Inactive
average effective concentration, CHRF288-11 (CHRF288-11 [7]; [17]): Inactive
average effective concentration, ML-2 (ML2; [22]): Inactive
average effective concentration, M07e (M07e [11]; M07e): Inactive
average effective concentration, CMK (CMK [10]; [19]): Inactive

CCC1=C[C@@H]2CN(C1)Cc1c([nH]c3ccccc13)[C@@](C(=O)OC)(c1cc3c(cc1OC)N(C)[C@H]1[C@@](O)(C(=O)OC)[C@H](OC(C)=O)[C@]4(CC)C=CCN5CC[C@]31[C@@H]54)C2 [VINORELBINE]
EC50 (MOLM-13 [1]; [13]): 29 nM
EC50 (MV4-11 [2]; [14]): 32 nM
EC50 (CHRF288-11 [7]; [17]): 2100 nM
EC50 (M07e [3]): > 10000 nM
EC50 (CMK [4]): > 10000 nM
EC50 (U937 [5]; Homo sapiens, U-937): 32 nM
EC50 (CMS): 240 nM
EC50 (ML2; [16]): 40 nM

CCOc1cc(N2CCC(O)CC2)ccc1Nc1ncc2c(n1)N(C)c1ccccc1C(=O)N2C [XMD 8-92]
average effective concentration, CHRF288-11 (CHRF288-11 [7]; [17]): Inactive
average effective concentration, ML-2 (ML2; [22]): Inactive
average effective concentration, M07e (M07e [11]; M07e): Inactive
